From US20250222108A1, “MEDICAL AGENT INCLUDING ADJUVANT AND COMPOSITE OF PHOTOSENSITIVE MOLECULE AND MOLECULE BINDING TO CANCER-SPECIFIC CELL SURFACE MOLECULE” (KYOTO UNIVERSITY, priority 2021, published 2025)

Test system: KPC-N cells
Assay: Antitumor effect by TLR3 ligand, pancreatic cancer model
Format: in vivo, C57BL/6 mice
Details: 50 μg intratumoral on day 8; N=6
Description: PolyI:C (Poly (I:C) (HMW) VacciGrade™: InvivoGen), which is a TLR3 ligand, was used.
1.5×10^6 KPC-N cells were subcutaneously transplanted to the back of 6- to 8-week-old C57BL/6 mice, and two groups (each group N=6) of non-treatment group (Control) and polyI:C group were established. To the tumor of the mice on day 8 after subcutaneous transplantation was topically injected (intratumoral administration) 50 μg of polyI:C.

Substance: polyI:C
- antitumor effect (tumor size): no antitumor effect
